The values that follow are results of earlier work, collected in patent US9456985B2, “Sustained-released product comprising a combination of a non-opioid amine and a non-steroidal, anti-inflammatory drug” (Upsher-Smith Laboratories, Inc., priority 2009, dated 2016).

The conditions of this data set: no test described.

Structures are written as SMILES. Structures can show the parent of a compound that is named as a salt.

For the compound `NC12CC3CC(CC(C3)C1)C2` [Amantadine hydrochloride], the “solubility (descriptive)” value is reported as “freely soluble”.

In the case of `CC12CC3CC(C)(C1)CC(N)(C3)C2` [memantine hydrochloride, Memantine hydrochloride], the “solubility (descriptive)” value is “soluble in water”.
